Test results as given in the NIST ThermoML archive (doi:10.1016/j.tca.2011.01.001).
Numbers after ± are expanded uncertainties.

Key:
[1] = Molar enthalpy of transition or fusion; settings: Crystal; DSC

O=C(O)c1ccc(O)c(O)c1 [3,4-dihydroxybenzoic acid]
Settings | Molar enthalpy of transition or fusion [kcal/mol]
[1] | 8.13 ± 0.478

Settings | vapor or sublimation pressure [kPa]
381.8 K, Crystal, Torsion effusion method | 6e-05 ± 3e-06
383 K, Crystal, Torsion effusion method | 6.7e-05 ± 3e-06
384.5 K, Crystal, Torsion effusion method | 7.7e-05 ± 4e-06
385.6 K, Crystal, Torsion effusion method | 8.7e-05 ± 4e-06
387.2 K, Crystal, Torsion effusion method | 0.000104 ± 5e-06
388.6 K, Crystal, Torsion effusion method | 0.000117 ± 6e-06
390 K, Crystal, Torsion effusion method | 0.000143 ± 7e-06
391.4 K, Crystal, Torsion effusion method | 0.00016 ± 8e-06
392.8 K, Crystal, Torsion effusion method | 0.000191 ± 1e-05
394.2 K, Crystal, Torsion effusion method | 0.000216 ± 1.1e-05
395.4 K, Crystal, Torsion effusion method | 0.000251 ± 1.3e-05
396.9 K, Crystal, Torsion effusion method | 0.000286 ± 1.4e-05
398.3 K, Crystal, Torsion effusion method | 0.00033 ± 1.7e-05
399.8 K, Crystal, Torsion effusion method | 0.000377 ± 1.9e-05
401.2 K, Crystal, Torsion effusion method | 0.000465 ± 2.3e-05
402.6 K, Crystal, Torsion effusion method | 0.000533 ± 2.7e-05
404 K, Crystal, Torsion effusion method | 0.00061 ± 3.1e-05
405.4 K, Crystal, Torsion effusion method | 0.000701 ± 3.5e-05
406.8 K, Crystal, Torsion effusion method | 0.000804 ± 4e-05
407.7 K, Crystal, Torsion effusion method | 0.000876 ± 4.4e-05
408.9 K, Crystal, Torsion effusion method | 0.000997 ± 5e-05
485.2 K, Liquid, Non-isothermal TG | 0.819 ± 0.17
485.8 K, Liquid, Non-isothermal TG | 0.807 ± 0.18
486.2 K, Liquid, Non-isothermal TG | 0.892 ± 0.18
486.8 K, Liquid, Non-isothermal TG | 0.868 ± 0.18
487.2 K, Liquid, Non-isothermal TG | 0.933 ± 0.2
487.7 K, Liquid, Non-isothermal TG | 0.902 ± 0.18
488.1 K, Liquid, Non-isothermal TG | 0.974 ± 0.2
488.4 K, Liquid, Isothermal TG | 0.983 ± 0.21
488.7 K, Liquid, Non-isothermal TG | 0.967 ± 0.2
488.8 K, Liquid, Isothermal TG | 1.007 ± 0.21
489.1 K, Liquid, Non-isothermal TG | 1.005 ± 0.21
489.2 K, Liquid, Isothermal TG | 1.027 ± 0.21
489.6 K, Liquid, Isothermal TG | 1.061 ± 0.22
489.7 K, Liquid, Non-isothermal TG | 1.033 ± 0.22
490 K, Liquid, Isothermal TG | 1.074 ± 0.22
490.1 K, Liquid, Non-isothermal TG | 1.129 ± 0.23
490.4 K, Liquid, Isothermal TG | 1.092 ± 0.23
490.7 K, Liquid, Non-isothermal TG | 1.087 ± 0.23
490.8 K, Liquid, Isothermal TG | 1.129 ± 0.23
491.1 K, Liquid, Non-isothermal TG | 1.188 ± 0.25
491.2 K, Liquid, Isothermal TG | 1.153 ± 0.24
491.6 K, Liquid, Isothermal TG | 1.192 ± 0.25
491.7 K, Liquid, Non-isothermal TG | 1.162 ± 0.24
492 K, Liquid, Isothermal TG | 1.22 ± 0.26
492.2 K, Liquid, Non-isothermal TG | 1.221 ± 0.25
492.4 K, Liquid, Isothermal TG | 1.254 ± 0.26
492.7 K, Liquid, Non-isothermal TG | 1.286 ± 0.27
492.8 K, Liquid, Isothermal TG | 1.28 ± 0.27
493.1 K, Liquid, Non-isothermal TG | 1.327 ± 0.27
493.2 K, Liquid, Isothermal TG | 1.32 ± 0.27
493.6 K, Liquid, Isothermal TG | 1.346 ± 0.28
493.7 K, Liquid, Non-isothermal TG | 1.298 ± 0.28
494 K, Liquid, Isothermal TG | 1.374 ± 0.29
494.1 K, Liquid, Non-isothermal TG | 1.375 ± 0.28
494.4 K, Liquid, Isothermal TG | 1.381 ± 0.28
494.7 K, Liquid, Non-isothermal TG | 1.365 ± 0.28
494.8 K, Liquid, Isothermal TG | 1.445 ± 0.3
495 K, Liquid, Non-isothermal TG | 1.494 ± 0.3
495.2 K, Liquid, Isothermal TG | 1.477 ± 0.3
495.6 K, Liquid, Isothermal TG | 1.482 ± 0.31
495.7 K, Liquid, Non-isothermal TG | 1.435 ± 0.3
495.9 K, Liquid, Non-isothermal TG | 1.566 ± 0.33
496 K, Liquid, Isothermal TG | 1.529 ± 0.31
496.4 K, Liquid, Isothermal TG | 1.557 ± 0.32
496.7 K, Liquid, Non-isothermal TG | 1.477 ± 0.31
496.8 K, Liquid, Isothermal TG | 1.584 ± 0.33
496.9 K, Liquid, Non-isothermal TG | 1.652 ± 0.36
497.2 K, Liquid, Isothermal TG | 1.607 ± 0.33
497.6 K, Liquid, Isothermal TG | 1.636 ± 0.34
497.7 K, Liquid, Non-isothermal TG | 1.634 ± 0.33
498 K, Liquid, Isothermal TG | 1.682 ± 0.34
498 K, Liquid, Non-isothermal TG | 1.745 ± 0.35
498.4 K, Liquid, Isothermal TG | 1.699 ± 0.35
498.8 K, Liquid, Isothermal TG | 1.728 ± 0.35
498.8 K, Liquid, Non-isothermal TG | 1.703 ± 0.36
499 K, Liquid, Non-isothermal TG | 1.71 ± 0.35
499.1 K, Liquid, Isothermal TG | 1.751 ± 0.36
499.5 K, Liquid, Isothermal TG | 1.764 ± 0.36
499.7 K, Liquid, Non-isothermal TG | 1.817 ± 0.37
499.9 K, Liquid, Non-isothermal TG | 1.882 ± 0.39
500 K, Liquid, Isothermal TG | 1.815 ± 0.37
500.4 K, Liquid, Isothermal TG | 1.865 ± 0.38
500.7 K, Liquid, Isothermal TG | 1.879 ± 0.38
500.7 K, Liquid, Non-isothermal TG | 1.858 ± 0.38
501 K, Liquid, Non-isothermal TG | 1.898 ± 0.38
501.2 K, Liquid, Isothermal TG | 1.914 ± 0.39
501.6 K, Liquid, Isothermal TG | 1.939 ± 0.4
501.7 K, Liquid, Non-isothermal TG | 1.899 ± 0.38
502 K, Liquid, Isothermal TG | 1.945 ± 0.39
502 K, Liquid, Non-isothermal TG | 1.962 ± 0.4
502.4 K, Liquid, Isothermal TG | 2.003 ± 0.41
502.7 K, Liquid, Non-isothermal TG | 1.95 ± 0.39
502.8 K, Liquid, Isothermal TG | 2.047 ± 0.42
503.1 K, Liquid, Non-isothermal TG | 2.033 ± 0.41
503.8 K, Liquid, Non-isothermal TG | 2.014 ± 0.43
504.1 K, Liquid, Non-isothermal TG | 2.184 ± 0.45
504.7 K, Liquid, Non-isothermal TG | 2.179 ± 0.45
505 K, Liquid, Non-isothermal TG | 2.292 ± 0.51
505.7 K, Liquid, Non-isothermal TG | 2.217 ± 0.44

Settings | Normal melting temperature [°C]
Crystal, DTA | 201.8 ± 0.5
